In article PMC7031696 (Cell chemical biology, 2019):
≈ marks a conversion by molar mass, not a printed value. Where two headings read alike, the source gives them in different places.

How the values were obtained:
[1] = system: 3D7-MR4 trophozoite parasite-infected RBCs; test: Metabolomic profiling (hydrophilic metabolite changes, UHPLC-MS); format: cell-based, Plasmodium falciparum
[2] = 1.5 h, 500 μM, pH 7.4
[3] = system: Plasmodium falciparum 3D7-A10 parasites; test: Stage specificity assay (8-h exposure of synchronized stages, IC50^8h); format: cell-based; conditions: for IC50: Plasmodium falciparum
[4] = system: asynchronous 3D7-A10 parasite cultures; test: Standard 72-h exposure asexual blood stage susceptibility assay (IC50^72h); format: cell-based, Plasmodium falciparum; conditions: Plasmodium falciparum, 3D7, 72 h, read-out: Overall (72hr assay) Mean IC50 (IC50^72h)

Cc1cc(Nc2ccc(OCc3ccccc3)cc2)nc2cc(O)ccc12 [MMV007181]
peptide levels (hemoglobin catabolism signature) ([1]; 10 × IC50^72h, 2.5 hr, trophozoites): decreased peptide levels | Log2(fold changes) 3-phosphoglycerate ([1]; metabolite 3-phosphoglycerate, log2 fold change): -0.1714 | Log2(fold changes) 4-Pyridoxic acid ([1]; metabolite 4-Pyridoxic acid, log2 fold change): -0.2247 | Log2(fold changes) 4-aminobutyrate ([1]; metabolite 4-aminobutyrate, log2 fold change): -0.0986 | Log2(fold changes) 4-phosphopantetheine ([1]; metabolite 4-phosphopantetheine, log2 fold change): 0.6961 | Log2(fold changes) 4-phosphopantothenate ([1]; metabolite 4-phosphopantothenate, log2 fold change): -0.6638 | Log2(fold changes) 5-aminopentanoic acid ([1]; metabolite 5-aminopentanoic acid, log2 fold change): -0.2294 | Log2(fold changes) 5-methyl-THF ([1]; metabolite 5-methyl-THF, log2 fold change): 0.0000 | Log2(fold changes) 5-phosphoribosyl-1-pyrophosphate ([1]; metabolite 5-phosphoribosyl-1-pyrophosphate, log2 fold change): 0.0000 | Log2(fold changes) 6-phospho-D-gluconate ([1]; metabolite 6-phospho-D-gluconate, log2 fold change): -0.1453 | Log2(fold change) HVDD ([1]; metabolite HVDD): -4.4739 | Log2(fold change) Hydroxyisocaproic acid ([1]; metabolite Hydroxyisocaproic acid): 0.0000 | Log2(fold change) IDP ([1]; metabolite IDP): -0.0045 | Log2(fold change) IMP ([1]; metabolite IMP): -0.1201 | Log2(fold change) Inositol ([1]; metabolite Inositol): 0.0000 | Log2(fold change) Isopentyl-PP ([1]; metabolite Isopentyl-PP): -0.4346 | Log2(fold change) L-arginino-succinate ([1]; metabolite L-arginino-succinate): -0.6665 | Log2(fold change) LD ([1]; metabolite LD): -0.1484 | Log2(fold change) Myristoyl/tetradecanoyl-CoA ([1]; metabolite Myristoyl/tetradecanoyl-CoA): 0.0000 | Log2(fold change) N-Acetyl-L-alanine ([1]; metabolite N-Acetyl-L-alanine): -0.3632 | Log2(fold change) N-acetyl-L-ornithine ([1]; metabolite N-acetyl-L-ornithine): -2.0310 | Log2(fold change) N-acetyl-glucosamine-1/6-phosphate ([1]; metabolite N-acetyl-glucosamine-1/6-phosphate): -0.0060 | Log2(fold change) N-acetyl-glutamate ([1]; metabolite N-acetyl-glutamate): 0.1987 | Log2(fold change) N-acetyl-glutamine ([1]; metabolite N-acetyl-glutamine): 0.1663 | Log2(fold change) N-carbamoyl-L-aspartate ([1]; metabolite N-carbamoyl-L-aspartate): -0.1286 | Log2(fold change) NAD+ ([1]; metabolite NAD+): -0.1335 | Log2(fold change) NADH ([1]; metabolite NADH): 2.9716 | Log2(fold change) NADP+ ([1]; metabolite NADP+): -0.2177 | Log2(fold change) NADPH ([1]; metabolite NADPH): 2.7260 | Log2(fold change) O-acetyl-L-serine ([1]; metabolite O-acetyl-L-serine): -0.0650 | Log2(fold change) Octoluse 8/1P ([1]; metabolite Octoluse 8/1P): -0.2583 | Log2(fold change) Octoluse Bisphosphate ([1]; metabolite Octoluse Bisphosphate): -0.7020 | Log2(fold change) PD ([1]; metabolite PD): -3.3017 | Log2(fold change) PE ([1]; metabolite PE): -2.9801 | Log2(fold change) PEE ([1]; metabolite PEE): -2.9268 | Log2(fold change) PEEK ([1]; metabolite PEEK): -4.7351 | Log2(fold change) PVNF ([1]; metabolite PVNF): -4.5493 | Log2(fold change) Pyroglutamic acid ([1]; metabolite Pyroglutamic acid): 0.2482 | Log2(fold change) Pyrophosphate ([1]; metabolite Pyrophosphate): 0.0000 | Log2(fold change) Ribose-5-phosphate ([1]; metabolite Ribose-5-phosphate): -0.4059 | Log2(fold change) S-adenosyl-L-homocysteine ([1]; metabolite S-adenosyl-L-homocysteine): -0.1192 | Log2(fold change) S-adenosyl-L-methioninamine ([1]; metabolite S-adenosyl-L-methioninamine): -3.2130 | Log2(fold change) S-adenosyl-L-methionine ([1]; metabolite S-adenosyl-L-methionine): -0.1206 | Log2(fold change) S-methyl-5'-thioadenosine ([1]; metabolite S-methyl-5'-thioadenosine): 0.4702 | Log2(fold change) SD ([1]; metabolite SD): -0.6167 | Log2(fold change) SDL ([1]; metabolite SDL): 0.0000 | Log2(fold change) SID ([1]; metabolite SID): -0.9911 | Log2(fold change) Sedoheptulose bisphosphate ([1]; metabolite Sedoheptulose bisphosphate): -0.4907 | Log2(fold change) Thiamine pyrophosphate ([1]; metabolite Thiamine pyrophosphate): -0.0717 | Log2(fold changes) UDP-D-glucose ([1]; metabolite UDP-D-glucose, log2 fold change): 0.0982 | Log2(fold changes) UDP-D-glucuronate ([1]; metabolite UDP-D-glucuronate, log2 fold change): -0.0548 | Log2(fold changes) UDP-N-acetyl-glucosamine ([1]; metabolite UDP-N-acetyl-glucosamine, log2 fold change): -0.0365 | Log2(fold changes) UDP ([1]; metabolite UDP, log2 fold change): -0.2952 | Log2(fold changes) UMP ([1]; metabolite UMP, log2 fold change): -0.1123 | Log2(fold changes) UTP ([1]; metabolite UTP, log2 fold change): -0.0747 | Log2(fold change) hydroxyphenylpyruvate ([1]; metabolite hydroxyphenylpyruvate): 0.0000 | Log2(fold change) hydroxyproline/Aminolevulinate ([1]; metabolite hydroxyproline/Aminolevulinate): -0.1078 | Log2(fold change) hypoxanthine ([1]; metabolite hypoxanthine): 0.1087 | Log2(fold change) indole ([1]; metabolite indole): -0.0870 | Log2(fold change) inosine ([1]; metabolite inosine): -0.1121 | Log2(fold change) isoleucine ([1]; metabolite isoleucine): 0.0000 | Log2(fold change) lactate ([1]; metabolite lactate): -0.3282 | Log2(fold change) leucine ([1]; metabolite leucine): -0.3120 | Log2(fold change) lysine ([1]; metabolite lysine): -2.3197 | Log2(fold change) malate ([1]; metabolite malate): -0.7445 | Log2(fold change) maleic acid ([1]; metabolite maleic acid): -0.7914 | Log2(fold change) methionine ([1]; metabolite methionine): 0.1152 | Log2(fold change) myo-inositol ([1]; metabolite myo-inositol): -0.3555 | Log2(fold change) nicotinamide mononucleotide ([1]; metabolite nicotinamide mononucleotide): -0.2883 | Log2(fold change) nicotinate ([1]; metabolite nicotinate): 0.1126 | Log2(fold change) ornithine ([1]; metabolite ornithine): -0.1929 | Log2(fold change) orotate ([1]; metabolite orotate): -0.4250 | Log2(fold change) orotidine-5'-phosphate ([1]; metabolite orotidine-5'-phosphate): -1.5378 | Log2(fold change) oxaloacetate ([1]; metabolite oxaloacetate): -0.5706 | Log2(fold change) p-aminobenzoate ([1]; metabolite p-aminobenzoate): 0.0000 | Log2(fold change) p-hydroxybenzoate ([1]; metabolite p-hydroxybenzoate): 0.0981 | Log2(fold change) pantothenate ([1]; metabolite pantothenate): 0.1598 | Log2(fold change) phenylalanine ([1]; metabolite phenylalanine): -0.4038 | Log2(fold change) phenylpyruvate ([1]; metabolite phenylpyruvate): 0.0000 | Log2(fold change) phosphoenolpyruvate ([1]; metabolite phosphoenolpyruvate): 0.0294 | Log2(fold change) prephenate ([1]; metabolite prephenate): -0.1912 | Log2(fold change) proline ([1]; metabolite proline): -0.4365 | Log2(fold change) pyridoxine ([1]; metabolite pyridoxine): -0.1437 | Log2(fold change) pyruvate ([1]; metabolite pyruvate): -0.7096 | Log2(fold change) riboflavin ([1]; metabolite riboflavin): 0.3011 | Log2(fold change) ribose ([1]; metabolite ribose): -0.0087 | Log2(fold change) ribose-phosphate ([1]; metabolite ribose-phosphate): -0.7988 | Log2(fold change) ribulose-5-phosphate ([1]; metabolite ribulose-5-phosphate): -0.4319 | Log2(fold change) serine ([1]; metabolite serine): -0.2012 | Log2(fold change) sn-glycerol-3-phosphate ([1]; metabolite sn-glycerol-3-phosphate): 0.0673 | Log2(fold change) succinate/Methylmalonic acid ([1]; metabolite succinate/Methylmalonic acid): -0.1908 | Log2(fold change) succinyl-CoA/methylmalonyl-CoA ([1]; metabolite succinyl-CoA/methylmalonyl-CoA): 0.0000 | Log2(fold change) taurine ([1]; metabolite taurine): 0.0434 | Log2(fold change) thiamine ([1]; metabolite thiamine): -0.2929 | Log2(fold change) threonine/homoserine ([1]; metabolite threonine/homoserine): -0.5619 | Log2(fold change) thymidine ([1]; metabolite thymidine): 0.0000 | Log2(fold changes) thymine ([1]; metabolite thymine, log2 fold change): 0.0000 | Log2(fold changes) trehalose-6-Phosphate ([1]; metabolite trehalose-6-Phosphate, log2 fold change): 0.0000 | Log2(fold changes) tryptophan ([1]; metabolite tryptophan, log2 fold change): -0.4056 | Log2(fold changes) tyrosine ([1]; metabolite tyrosine, log2 fold change): -0.2656 | Log2(fold changes) uridine ([1]; metabolite uridine, log2 fold change): 0.0000 | Ratio fil./std. (absorbance filtrate/standard) [2]: 0.69 | solubility at 1.5 h (physchem; pH 7.4): > 100 µM | solubility at 1.5 h (physchem; pH 7.4, aqueous buffer, kinetic from dmso stock): 100 to 500 µM (≈ 35.6 to 178 µg/mL) | Ratio lowest IC50 8hr/IC50 72hr ([3]; 3D7-A10): 3.0 | killing in stage specificity assay ([3]; 8-h exposures, survival curves): incomplete killing at all asexual blood stages | IC50 ([3]; 3D7, read-out: Early rings IC50 (IC50^8h), 8-h exposure 0–8 hr, bound given in μM): > 25 µM | IC50 ([3]; 3D7, read-out: Early trophozoites Mean IC50 (IC50^8h), 8-h exposure 16–24 hr, 3D7-A10, survival at 60 h): 0.253 µM | IC50 ([3]; 3D7, read-out: Late rings IC50 (IC50^8h), 8-h exposure 8–16 hr, bound given in μM): > 25 µM | IC50 ([3]; 3D7, read-out: Late trophozoites Mean IC50 (IC50^8h), 8-h exposure 24–32 hr, 3D7-A10, survival at 60 h): 0.274 µM | IC50 ([3]; 3D7, read-out: Schizonts Mean IC50 (IC50^8h), 8-h exposure 32–40 hr, 3D7-A10, survival at 60 h): 0.57 µM | Stage of peak activity (Figure 6) ([3]; period when the parasite was most susceptible (lowest IC50^8h)): trophozoites | Peak Activity (Table S1) ([3]; stage(s) with the lowest IC50^8h): Trophs | IC50 [4]: 84.9 nM
